Measurements as given in the supplement of paper PMC10307832.

Each cell line was assayed with C(C(=O)C(=O)O)Br [Bromopyruvate] + CC(C)C[C@H](NC(=O)[C@H](Cc1ccccc1)NC(=O)c1cnccn1)B(O)O [Bortezomib] (partner 0.002 µM) (assay: relative viability (nuclei count vs DMSO), 5 days (fraction); higher = more cells survive). Settings: first compound 1 µM.
How it was run: (§1)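 Cells from lung cancer lines were seeded into 1536-well plates and, one day later, dosed by pin tool. Treatments were either a single drug or a fixed dose of an anchor drug with five library-drug doses (not always all listed) in √10 steps. After 5 days, nuclei were stained in a one-step fixation (final 0.05% Triton X-100, 1% formaldehyde, 1 ug/ml Hoechst) and counted on 4× images, and relative viability is the treated-to-vehicle nuclei ratio, as the median of duplicate plates.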

Cell Line | relative viability
BEN | 0.897
HARA | 1.11
HCC-78 | 0.282
NCI-H441 | 0.37
LCLC-97TM1 | 0.957
NCI-H2023 | 0.95
A-427 | 0.999
NCI-H460 | 1.06
NCI-H727 | 1.01
NCI-H1734 | 0.984
NCI-H520 | 0.6
NCI-H2405 | 1.02
SW 1573 | 0.935
201T | 1.11
NCI-H1915 | 1
HCC-827 | 1.05
LXF-289 | 1.04
NCI-H2347 | 0.862

Cell Line | relative viability
NCI-H650 | 0.946
NCI-H1651 | 0.922
EPLC-272H | 0.844
NCI-H23 | 1.03
NCI-H1792 | 1.01
NCI-H1355 | 1.35
NCI-H322M | 1.2
NCI-H1437 | 0.546
NCI-H1755 | 0.967
NCI-H2085 | 1.07
HCC-15 | 0.98
PC-3 [JPC-3] | 0.796
EKVX | 1.08
LC-2-ad | 0.924
NCI-H1975 | 0.423
SK-LU-1 | 1.44
NCI-H661 | 0.862

Same assay, conditions: first compound 3.162 µM

Cell Line | relative viability
BEN | 0.724
HARA | 1.13
HCC-78 | 0.615
NCI-H441 | 0.549
LCLC-97TM1 | 0.625
NCI-H2023 | 1.09
A-427 | 1.02
NCI-H460 | 1.14
NCI-H727 | 0.984
NCI-H1734 | 0.89
NCI-H520 | 0.595
NCI-H2405 | 0.992
SW 1573 | 1.02
201T | 1.08
NCI-H1915 | 1.02
HCC-827 | 1.07
LXF-289 | 0.966
NCI-H2347 | 1.19

Cell Line | relative viability
NCI-H650 | 0.819
NCI-H1651 | 0.952
EPLC-272H | 0.952
NCI-H23 | 0.991
NCI-H1792 | 0.932
NCI-H1355 | 1.16
NCI-H322M | 1.25
NCI-H1437 | 0.458
NCI-H1755 | 0.938
NCI-H2085 | 1.18
HCC-15 | 1.03
PC-3 [JPC-3] | 0.74
EKVX | 0.993
LC-2-ad | 0.934
NCI-H1975 | 0.431
SK-LU-1 | 1.01
NCI-H661 | 0.755

Same assay, conditions: first compound 10 µM

Cell Line | relative viability
BEN | 0.78
HARA | 1.13
HCC-78 | 0.569
NCI-H441 | 0.481
LCLC-97TM1 | 0.735
NCI-H2023 | 0.969
A-427 | 0.931
NCI-H460 | 1.34
NCI-H727 | 0.939
NCI-H1734 | 1.11
NCI-H520 | 0.532
NCI-H2405 | 1.19
SW 1573 | 1.18
201T | 1.11
NCI-H1915 | 1.01
HCC-827 | 1.03
LXF-289 | 0.975
NCI-H2347 | 0.893

Cell Line | relative viability
NCI-H650 | 0.856
NCI-H1651 | 1.04
EPLC-272H | 1.03
NCI-H23 | 1.25
NCI-H1792 | 1.11
NCI-H1355 | 1.25
NCI-H322M | 1.12
NCI-H1437 | 0.485
NCI-H1755 | 0.994
NCI-H2085 | 1.15
HCC-15 | 1.03
PC-3 [JPC-3] | 0.832
EKVX | 1.12
LC-2-ad | 1.07
NCI-H1975 | 0.475
SK-LU-1 | 1.82
NCI-H661 | 0.84

Same assay, conditions: first compound 31.62 µM

Cell Line | relative viability
BEN | 0.836
HARA | 1.17
HCC-78 | 0.563
NCI-H441 | 0.548
LCLC-97TM1 | 0.573
NCI-H2023 | 0.914
A-427 | 1.05
NCI-H460 | 0.978
NCI-H727 | 0.729
NCI-H1734 | 0.97
NCI-H520 | 0.49
NCI-H2405 | 0.954
SW 1573 | 1.08
201T | 1.1
NCI-H1915 | 0.929
HCC-827 | 1.08
LXF-289 | 1.03
NCI-H2347 | 0.723

Cell Line | relative viability
NCI-H650 | 0.897
NCI-H1651 | 0.822
EPLC-272H | 0.862
NCI-H23 | 0.941
NCI-H1792 | 0.879
NCI-H1355 | 1.34
NCI-H322M | 1.18
NCI-H1437 | 0.405
NCI-H1755 | 1.01
NCI-H2085 | 1
HCC-15 | 0.99
PC-3 [JPC-3] | 0.785
EKVX | 1.11
LC-2-ad | 0.977
NCI-H1975 | 0.405
SK-LU-1 | 0.987
NCI-H661 | 0.854

Same assay, conditions: first compound 100 µM

Cell Line | relative viability
BEN | 0.682
HARA | 1.15
HCC-78 | 0.495
NCI-H441 | 0.459
LCLC-97TM1 | 0.586
NCI-H2023 | 1.06
A-427 | 1.06
NCI-H460 | 1.07
NCI-H727 | 1.01
NCI-H1734 | 1.09
NCI-H520 | 0.541
NCI-H2405 | 1.04
SW 1573 | 0.392
201T | 1.03
NCI-H1915 | 0.975
HCC-827 | 1.05
LXF-289 | 1
NCI-H2347 | 1.08

Cell Line | relative viability
NCI-H650 | 0.973
NCI-H1651 | 0.867
EPLC-272H | 1.08
NCI-H23 | 0.839
NCI-H1792 | 0.915
NCI-H1355 | 1.16
NCI-H322M | 1.26
NCI-H1437 | 0.626
NCI-H1755 | 1.03
NCI-H2085 | 0.792
HCC-15 | 0.973
PC-3 [JPC-3] | 0.856
EKVX | 1.1
LC-2-ad | 0.988
NCI-H1975 | 0.5
SK-LU-1 | 1.27
NCI-H661 | 0.98

These cell lines were tested with C(C(=O)C(=O)O)Br [Bromopyruvate] + Nc1ncn([C@H]2C[C@H](O)[C@@H](CO)O2)c(=O)n1 [Decitabine] (partner 2 µM) in the same assay as above. Settings: first compound 1 µM.
How it was run: as §1

Cell Line | relative viability
BEN | 0.726
HARA | 0.624
HCC-78 | 0.644
NCI-H441 | 0.324
LCLC-97TM1 | 0.246
NCI-H2023 | 0.221
A-427 | 0.581
NCI-H460 | 0.484
NCI-H727 | 0.815
NCI-H1734 | 0.505
NCI-H520 | 0.576
NCI-H2405 | 0.696
SW 1573 | 0.498
201T | 0.882
NCI-H1915 | 0.258
HCC-827 | 0.356
LXF-289 | 0.398
NCI-H2347 | 0.605

Cell Line | relative viability
NCI-H650 | 0.295
NCI-H1651 | 0.604
EPLC-272H | 0.371
NCI-H23 | 0.299
NCI-H1792 | 0.57
NCI-H1355 | 0.382
NCI-H322M | 0.705
NCI-H1437 | 0.672
NCI-H1755 | 0.793
NCI-H2085 | 0.626
HCC-15 | 0.614
PC-3 [JPC-3] | 0.866
EKVX | 0.36
LC-2-ad | 0.856
NCI-H1975 | 0.396
SK-LU-1 | 0.704
NCI-H661 | 0.505

Same assay, conditions: first compound 3.162 µM

Cell Line | relative viability
BEN | 0.685
HARA | 0.572
HCC-78 | 0.708
NCI-H441 | 0.238
LCLC-97TM1 | 0.226
NCI-H2023 | 0.205
A-427 | 0.567
NCI-H460 | 0.459
NCI-H727 | 1.09
NCI-H1734 | 0.507
NCI-H520 | 0.486
NCI-H2405 | 0.732
SW 1573 | 0.574
201T | 0.835
NCI-H1915 | 0.273
HCC-827 | 0.295
LXF-289 | 0.417

Cell Line | relative viability
NCI-H2347 | 0.643
NCI-H650 | 0.322
NCI-H1651 | 0.587
EPLC-272H | 0.376
NCI-H23 | 0.294
NCI-H1792 | 0.614
NCI-H1355 | 0.328
NCI-H322M | 0.717
NCI-H1437 | 0.588
NCI-H1755 | 0.684
NCI-H2085 | 0.557
HCC-15 | 0.625
EKVX | 0.353
LC-2-ad | 0.726
NCI-H1975 | 0.402
SK-LU-1 | 0.606
NCI-H661 | 0.571

Same assay, conditions: first compound 10 µM

Cell Line | relative viability
BEN | 0.773
HCC-78 | 0.723
NCI-H441 | 0.243
LCLC-97TM1 | 0.263
NCI-H2023 | 0.29
A-427 | 0.612
NCI-H460 | 0.679
NCI-H727 | 0.966
NCI-H1734 | 0.629
NCI-H520 | 0.473
NCI-H2405 | 0.854
SW 1573 | 0.534
201T | 0.849
NCI-H1915 | 0.268
HCC-827 | 0.305
LXF-289 | 0.419
NCI-H2347 | 0.541

Cell Line | relative viability
NCI-H650 | 0.316
NCI-H1651 | 0.709
EPLC-272H | 0.426
NCI-H23 | 0.308
NCI-H1792 | 0.45
NCI-H1355 | 0.316
NCI-H322M | 0.747
NCI-H1437 | 0.524
NCI-H1755 | 0.721
NCI-H2085 | 0.529
HCC-15 | 0.615
PC-3 [JPC-3] | 0.91
EKVX | 0.319
LC-2-ad | 0.797
NCI-H1975 | 0.341
SK-LU-1 | 0.56
NCI-H661 | 0.654

Same assay, conditions: first compound 31.62 µM

Cell Line | relative viability
BEN | 0.617
HARA | 0.545
HCC-78 | 0.63
NCI-H441 | 0.22
LCLC-97TM1 | 0.243
NCI-H2023 | 0.229
A-427 | 0.631
NCI-H460 | 0.46
NCI-H727 | 0.915
NCI-H1734 | 0.502
NCI-H520 | 0.531
SW 1573 | 0.304
201T | 0.85
NCI-H1915 | 0.249
HCC-827 | 0.331
LXF-289 | 0.388
NCI-H2347 | 0.616

Cell Line | relative viability
NCI-H650 | 0.281
NCI-H1651 | 0.548
EPLC-272H | 0.437
NCI-H23 | 0.277
NCI-H1792 | 0.498
NCI-H1355 | 0.343
NCI-H322M | 0.758
NCI-H1437 | 0.583
NCI-H1755 | 0.672
NCI-H2085 | 0.593
HCC-15 | 0.659
EKVX | 0.371
LC-2-ad | 0.872
NCI-H1975 | 0.394
SK-LU-1 | 0.597
NCI-H661 | 0.546

Same assay, conditions: first compound 100 µM

Cell Line | relative viability
BEN | 0.674
HARA | 0.558
HCC-78 | 0.655
NCI-H441 | 0.242
LCLC-97TM1 | 0.16
NCI-H2023 | 0.194
A-427 | 0.568
NCI-H460 | 0.468
NCI-H727 | 0.871
NCI-H1734 | 0.457
NCI-H520 | 0.414
NCI-H2405 | 0.665
SW 1573 | 0.0598
201T | 0.928
NCI-H1915 | 0.271
HCC-827 | 0.266
